Assay results reported in US7067619B2, “Integrin-binding peptides” (La Jolla Cancer Research Foundation, priority 1993, dated 2006).
pIC50: −log10 of the molar value. Where two headings read alike, the source gives them in different places. Bridge positions count the residues as written; N and C are the ends. Ends that are not written are not given here.

Legend:
α5β1 integrin [1] = assay: Cell attachment to immobilized […] peptide (B2/α27 vs B2/Cl cells); assay type: cell-based, human; conditions: FIG. 8
Excerpt: (§1) Cell lines expressing fibronectin-binding integrins were used to determine peptide activities against these integrins in the cell attachment assay described by Ruoslahti et al., Meth. Enzymol., 144:803–831 (1982), which is incorporated herein by reference. Human plasma fibronectin was iodinated as described by Morla and Ruoslahti, J. Cell Biol., 118:421–429 (1992), which is incorporated herein by reference. Vitronectin was obtained from Telios Pharmaceuticals (San Diego, Calif.). […] Peptide was coated on plastic by incubating at 37° C. for 2 hours in phosphate buffered saline containing 0.25% glutaraldehyde to crosslink the peptide. Free binding sites on the plastic were blocked using BSA. Approximately 1×10^5 cells per well were allowed to attach for 1 hour in the presence or absence of competing peptides. Bound cells were quantitated by staining with 0.1% amido black.
In addition to the inhibition of cell attachment to natural ligands, attachment and inhibition assays were performed using the […] [SEQ ID NO:6] peptide as substrate. The microliter well were coated with […] [SEQ ID NO:6] using glutaraldehyde as described above. Briefly, peptide was coated on plastic by incubating at 37° C. for 2 hours in phosphate buffered saline containing 0.25% glutaraldehyde to crosslink the peptide and free binding sites on the plastic were blocked using BSA. The wells were then saturated with BSA followed by the addition of 50,000 B2/α27 or B2/Cl cells in the presence or absence of the indicated inhibitor. […] Bound cells were quantitated by staining with 0.1% amido black.

α5β1 integrin [2] = assay: Inhibition of α5β1-mediated cell attachment to fibronectin; assay type: cell-based, human
Excerpt: Cell lines expressing different integrins were used to examine peptide inhibition of integrin function. A human melanoma cell line, C8161, a fibroblast cell line, WI-38, and an osteosarcoma cell line, MG-63 (described by Seftor et al., Canc. Res., 53:3411–3415 (1993); Vogel et al., J. Biol. Chem., 265:5934–5937 (1990); and Pytela et al. (1985), supra, respectively, each of which is incorporated herein by reference) attach to fibronectin through α5β1 integrin, as does B2/α27, a CHO cell line transfected with human α5. B2/C1, the control parental CHO line (Bauer et al., J. Cell. Biol. 116:477–487 (1992), which is incorporated herein by reference), attaches via […]. CHO cells C11 and NIH 3T3 cells express the endogenous Chinese hamster and mouse α5β1 integrins, respectively. The human melanoma cells, A375-M, attach to fibronectin through both α5β1 and α4β1 integrins (Mould et al., J. Biol. Chem. 265:4020–4024 (1990), which is incorporated herein by reference). CHO cell line B2/v7 express the αvβ1 integrin (Zhang et al., J. Cell. Biol. 122:235–242 (1993), which is incorporated herein by reference). The vitronectin-binding integrins […] and αvβ3 were assayed using the cell line HT-29 and IMR-90, respectively (Koivunen et al., J. Biol. Chem. 268: 20205–20210 (1993)).
as §1
Inhibition of cell attachment mediated by either fibronectin- or vitronectin-binding integrins was performed to determine peptide specificity in a biologically relevant system. The assays and cell lines were performed as described above. FIGS. 5 and 6 show the results of cell attachment mediated by the fibronectin binding integrins α5β1 and αvβ1.

α5β1 integrin [3] = target: T1, α5β1 integrin (Homo sapiens, UniProt P05556+P08648); assay: Panning and binding of peptide-displaying phage on α5β1 integrin; conditions: phage-displayed sequence
T1 construct: The αvβ3, αvβ5 and α5β1 integrins were isolated from human placental extracts; from tissue; host or cells: human placenta
T1 sequence (P08648 42-894 limits assumed): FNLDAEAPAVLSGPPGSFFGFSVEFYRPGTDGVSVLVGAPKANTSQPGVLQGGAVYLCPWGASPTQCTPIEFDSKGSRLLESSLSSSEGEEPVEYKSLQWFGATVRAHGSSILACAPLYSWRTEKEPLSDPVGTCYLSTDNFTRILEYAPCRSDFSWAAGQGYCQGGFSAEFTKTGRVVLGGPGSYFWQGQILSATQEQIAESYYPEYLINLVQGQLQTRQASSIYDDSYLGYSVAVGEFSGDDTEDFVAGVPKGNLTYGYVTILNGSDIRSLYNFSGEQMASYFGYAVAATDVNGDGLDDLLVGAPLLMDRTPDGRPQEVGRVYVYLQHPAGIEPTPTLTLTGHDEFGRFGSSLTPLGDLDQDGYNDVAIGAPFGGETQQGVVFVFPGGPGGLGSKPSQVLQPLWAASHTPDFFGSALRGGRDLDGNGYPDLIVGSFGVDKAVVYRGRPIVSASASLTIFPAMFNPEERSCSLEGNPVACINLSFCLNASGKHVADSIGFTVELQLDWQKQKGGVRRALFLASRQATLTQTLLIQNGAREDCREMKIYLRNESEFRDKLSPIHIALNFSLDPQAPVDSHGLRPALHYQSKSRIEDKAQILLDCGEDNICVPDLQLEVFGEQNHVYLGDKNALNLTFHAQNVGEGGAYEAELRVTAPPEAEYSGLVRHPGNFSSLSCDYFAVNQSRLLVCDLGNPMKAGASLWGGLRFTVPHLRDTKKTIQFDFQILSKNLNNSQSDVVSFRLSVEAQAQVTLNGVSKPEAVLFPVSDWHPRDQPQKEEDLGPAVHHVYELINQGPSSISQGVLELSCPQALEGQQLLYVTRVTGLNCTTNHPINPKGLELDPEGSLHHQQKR
T1 sequence (P08648 895-1049 partner limits assumed): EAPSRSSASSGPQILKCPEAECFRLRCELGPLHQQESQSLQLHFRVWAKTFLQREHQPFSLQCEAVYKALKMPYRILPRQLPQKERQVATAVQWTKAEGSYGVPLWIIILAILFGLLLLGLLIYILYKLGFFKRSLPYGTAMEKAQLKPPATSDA
T1 sequence (P05556 21-798): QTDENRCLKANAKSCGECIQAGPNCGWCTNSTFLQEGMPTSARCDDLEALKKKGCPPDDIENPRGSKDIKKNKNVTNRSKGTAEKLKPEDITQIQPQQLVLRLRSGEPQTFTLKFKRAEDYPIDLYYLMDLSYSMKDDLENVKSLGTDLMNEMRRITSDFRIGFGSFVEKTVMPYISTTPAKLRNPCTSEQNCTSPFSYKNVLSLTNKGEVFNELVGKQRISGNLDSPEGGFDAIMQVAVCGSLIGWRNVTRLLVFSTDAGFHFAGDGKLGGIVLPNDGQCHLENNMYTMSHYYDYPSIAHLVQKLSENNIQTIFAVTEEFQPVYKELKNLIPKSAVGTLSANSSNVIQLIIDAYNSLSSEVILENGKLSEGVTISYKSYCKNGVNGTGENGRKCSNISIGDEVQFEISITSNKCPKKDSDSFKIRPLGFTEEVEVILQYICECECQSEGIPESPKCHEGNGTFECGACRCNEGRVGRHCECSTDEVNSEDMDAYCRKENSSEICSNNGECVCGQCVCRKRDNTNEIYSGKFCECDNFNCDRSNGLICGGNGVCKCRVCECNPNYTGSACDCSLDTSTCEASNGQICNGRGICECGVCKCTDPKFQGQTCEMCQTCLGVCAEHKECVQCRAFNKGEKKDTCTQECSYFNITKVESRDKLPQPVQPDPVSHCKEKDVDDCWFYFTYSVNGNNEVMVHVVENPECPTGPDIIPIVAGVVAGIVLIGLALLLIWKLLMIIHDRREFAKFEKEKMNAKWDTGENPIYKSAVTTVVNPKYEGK
Excerpt: (§2) In addition, most of the phage-binding activity in the αvβ3 preparation was captured into microliter wells coated with antibodies against the αv or β3 subunits as described previously (Koivunen et al., J. Biol. Chem., 268:20205–10 (1993). The αIIbβ3 integrin was isolated from outdated platelets (Pytela et al., Science, 231:1559–1562 (1986)).
Peptide libraries were constructed in fuse 5 vector (Scott and Smith, Science 249:386–390 (1990)) as described previously (Koivunen et al., J. Cell Biol., 124:373–380 (1994). The CX5C, CX6C, CX7C and CX9 [SEQ ID NOs:39–42, respectively] libraries were prepared using synthetic oligonucleotides containing core sequences TGT(NNK)5TGT, TGT(NNK)6TGT, TGT(NNK)7TGT and TGT(NNK)9 [SEQ ID NOS:43–46, respectively] (N=equal molar mixture of A, C, G, T; K=G or T), respectively. The oligonucleotides were made double-stranded by PCR amplification with 5 cycles, purified and ligated to the N-terminus of pIII gene of fuse 5 vector. The CX5C, CX6C, CX7C and CX9 [SEQ ID NOS:39–42, respectively] vectors were transfected into MC1061 cells using 16, 60, 263 and 250 electroporations, respectively. Bacteria were cultured for 24 hours in the presence of 20 μg/ml of tetracycline, and phage were collected from the supernatant by precipitation twice with polyethylene glycol. The phage pellets were dissolved at approximately 10^13 transducing units (TU)/ml in TBS buffer containing 0.02% NaN3 and stored at 4° C. The yields of the CX5C, CX6C, CX7C and CX9 [SEQ ID NOS:39–42, respectively] primary libraries were 3.5×10^8, 1.1×10^9, 4.5×10^5 and 3.5×10^8 clones, respectively. […]
Binding of individual cloned phage to integrins was studied in microliter wells as described in Koivunen et al., J. Cell. […] Phage that were bound were determined by their ability to infect F-pilus positive K91kan bacteria. Bacteria were grown overnight in microliter wells in the presence of tetracycline and the absorbance indicative of bacterial growth was read at 600 nm with an ELISA plate reader.

α5β1 integrin [4] = target: T1, α5β1 integrin; assay: Inhibition of peptide-displaying phage binding to α5β1 integrin by synthetic peptides
Experimental: Phage clone containing the RGDGW [SEQ ID NO:9] sequence was incubated for 1 hour in integrin-coated microliter wells in the presence of the competing peptides. After extensive washing, the phage remained bound were determined as described in Example XII.
as §2
(§3) Binding of individual cloned phage to integrins was studied in microliter wells as described in Koivunen et al., J. Cell. Biol., 124:373–380 (1994). Phage binding to α5β1 and αvβ3 were assayed in TBS buffer containing 1% BSA and 1 mM MnCl2 and binding to αvβ5 in the presence of 1 mM CaCl2. Phage that were bound were determined by their ability to infect F-pilus positive K91kan bacteria. Bacteria were grown overnight in microliter wells in the presence of tetracycline and the absorbance indicative of bacterial growth was read at 600 nm with an ELISA plate reader.
Relative affinities of the […] [SEQ ID NO:12] and CRGDC [SEQ ID NO:37] peptides were determined by inhibition of binding of peptide-displaying phage to α5β1 integrin. Peptide-displaying phage were constructed as described by Scott and Smith, Science 249:386–390 (1990) and Example IV. Microwell plates were coated with various integrins as described by Koivunen et al., J. Biol. Chem., 268:20205–10 (1993) and Example II.
The binding of […] [SEQ ID NO:12]-containing peptide ligands to α5β1 integrin was performed as follows. RRETAWA [SEQ ID NO:8]-displaying phage were incubated for 1 hour in the presence of various concentrations of the cyclic peptides containing […] [SEQ ID NO:12] and containing CRGDC [SEQ ID NO:37] in microliter wells coated with the α5β1 integrin. Binding was quantitated by adding K91kan bacteria directly to the wells and growing the bacteria overnight at room temperature (Smith and Scott, Meth. Enzymol., 217:228–257 (1993), which is incorporated herein by reference).
Additional peptide motifs were tested as follows. ELRGDGW-displaying [SEQ ID NO:4] phage were added together with various concentrations of the cyclic peptides containing […] [SEQ ID NO:12] and containing CRGDC [SEQ ID NO:37] into microliter wells coated with the α5β1 integrin, incubated for 1 hour at room temperature and binding to wells was quantitated.

αvβ3 integrin = αvβ3 integrin (Homo sapiens, UniProt P05106+P06756); assay: Inhibition of peptide-displaying phage binding to αvβ3 integrin by synthetic peptides; parameters: The αvβ3, αvβ5 and α5β1 integrins were isolated from human placental extracts; from tissue; host or cells: human placenta; conditions: CRGDCL-displaying phage, αvβ3-coated wells; FIG. 3 (result sentence prints α5β1)
αvβ3 integrin, sequence (P06756 31-889 limits assumed): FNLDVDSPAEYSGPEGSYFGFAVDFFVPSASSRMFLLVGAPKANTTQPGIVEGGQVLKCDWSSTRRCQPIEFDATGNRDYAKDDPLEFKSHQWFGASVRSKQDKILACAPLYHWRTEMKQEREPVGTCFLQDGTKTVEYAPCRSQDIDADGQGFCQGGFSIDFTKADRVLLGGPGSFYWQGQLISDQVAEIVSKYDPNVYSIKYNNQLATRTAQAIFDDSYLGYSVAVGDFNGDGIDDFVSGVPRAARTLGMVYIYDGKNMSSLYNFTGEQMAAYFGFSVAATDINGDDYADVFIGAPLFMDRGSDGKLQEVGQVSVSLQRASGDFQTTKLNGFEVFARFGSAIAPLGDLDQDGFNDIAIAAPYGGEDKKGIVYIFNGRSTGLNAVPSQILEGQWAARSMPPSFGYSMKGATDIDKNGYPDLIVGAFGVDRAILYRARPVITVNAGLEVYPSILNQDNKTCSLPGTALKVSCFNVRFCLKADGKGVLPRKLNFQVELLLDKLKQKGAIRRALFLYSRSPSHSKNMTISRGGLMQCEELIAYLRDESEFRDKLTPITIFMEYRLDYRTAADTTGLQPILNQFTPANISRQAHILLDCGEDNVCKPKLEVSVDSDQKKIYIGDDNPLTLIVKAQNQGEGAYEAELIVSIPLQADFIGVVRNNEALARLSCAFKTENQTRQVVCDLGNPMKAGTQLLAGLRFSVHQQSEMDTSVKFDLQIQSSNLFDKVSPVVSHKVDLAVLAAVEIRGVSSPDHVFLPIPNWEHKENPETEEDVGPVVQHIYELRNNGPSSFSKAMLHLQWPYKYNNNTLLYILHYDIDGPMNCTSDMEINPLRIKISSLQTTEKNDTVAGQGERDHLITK
αvβ3 integrin, sequence (P06756 891-1048 partner limits assumed): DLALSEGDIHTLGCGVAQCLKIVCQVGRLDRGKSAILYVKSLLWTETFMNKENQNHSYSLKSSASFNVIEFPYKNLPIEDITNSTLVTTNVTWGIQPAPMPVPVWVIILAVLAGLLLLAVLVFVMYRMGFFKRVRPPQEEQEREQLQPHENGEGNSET
αvβ3 integrin, sequence (P05106 27-788): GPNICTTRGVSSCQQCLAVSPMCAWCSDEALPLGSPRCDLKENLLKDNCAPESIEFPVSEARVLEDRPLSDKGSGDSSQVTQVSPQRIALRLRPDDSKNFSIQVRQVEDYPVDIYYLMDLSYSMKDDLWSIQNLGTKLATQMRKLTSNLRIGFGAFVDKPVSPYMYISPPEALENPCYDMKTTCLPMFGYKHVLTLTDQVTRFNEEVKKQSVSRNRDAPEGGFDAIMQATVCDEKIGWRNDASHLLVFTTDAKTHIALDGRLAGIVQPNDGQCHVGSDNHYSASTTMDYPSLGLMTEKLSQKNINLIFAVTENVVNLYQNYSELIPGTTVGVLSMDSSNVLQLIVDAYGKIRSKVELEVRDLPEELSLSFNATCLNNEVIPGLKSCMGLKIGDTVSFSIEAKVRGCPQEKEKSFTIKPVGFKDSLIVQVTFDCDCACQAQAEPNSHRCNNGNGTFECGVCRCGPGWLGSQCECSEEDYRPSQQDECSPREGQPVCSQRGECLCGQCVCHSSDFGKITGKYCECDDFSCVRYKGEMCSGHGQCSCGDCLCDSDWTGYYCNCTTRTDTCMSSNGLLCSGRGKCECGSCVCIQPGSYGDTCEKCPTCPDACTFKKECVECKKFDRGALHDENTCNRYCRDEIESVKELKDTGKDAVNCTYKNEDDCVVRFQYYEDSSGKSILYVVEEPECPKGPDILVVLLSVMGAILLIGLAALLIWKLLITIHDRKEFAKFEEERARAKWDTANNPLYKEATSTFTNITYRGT
Excerpt: as §2, §3
The ability of […] [SEQ ID NO:12] and CRGDC [SEQ ID NO:37] containing peptides to inhibit binding of CRGDCL-displaying [SEQ ID NO:7] phage to the microwells coated with αvβ3 integrin also was examined. CRGDCL-displaying [SEQ ID NO:7] phage were added to a well and either cyclic […] [SEQ ID NO:6] or cyclic […] [SEQ ID NO:5] was added to compete for binding. Binding was quantitated as described above.

α5β1 = α5β1 (Homo sapiens, UniProt P05556+P08648); conditions: Nowlin et al., J. Biol. Chem. 268:20352–59 (1993); cited from earlier work
α5β1, sequence (P08648 42-894 limits assumed): as the sequence (P08648 42-894 limits assumed) above
α5β1, sequence (P08648 895-1049 partner limits assumed): as the sequence (P08648 895-1049 partner limits assumed) above
α5β1, sequence (P05556 21-798): as the sequence (P05556 21-798) above

α4β1 = α4β1 (Homo sapiens, UniProt P05556+P13612); conditions: Nowlin et al., J. Biol. Chem. 268:20352–59 (1993); cited from earlier work
α4β1, sequence (P13612 34-1032): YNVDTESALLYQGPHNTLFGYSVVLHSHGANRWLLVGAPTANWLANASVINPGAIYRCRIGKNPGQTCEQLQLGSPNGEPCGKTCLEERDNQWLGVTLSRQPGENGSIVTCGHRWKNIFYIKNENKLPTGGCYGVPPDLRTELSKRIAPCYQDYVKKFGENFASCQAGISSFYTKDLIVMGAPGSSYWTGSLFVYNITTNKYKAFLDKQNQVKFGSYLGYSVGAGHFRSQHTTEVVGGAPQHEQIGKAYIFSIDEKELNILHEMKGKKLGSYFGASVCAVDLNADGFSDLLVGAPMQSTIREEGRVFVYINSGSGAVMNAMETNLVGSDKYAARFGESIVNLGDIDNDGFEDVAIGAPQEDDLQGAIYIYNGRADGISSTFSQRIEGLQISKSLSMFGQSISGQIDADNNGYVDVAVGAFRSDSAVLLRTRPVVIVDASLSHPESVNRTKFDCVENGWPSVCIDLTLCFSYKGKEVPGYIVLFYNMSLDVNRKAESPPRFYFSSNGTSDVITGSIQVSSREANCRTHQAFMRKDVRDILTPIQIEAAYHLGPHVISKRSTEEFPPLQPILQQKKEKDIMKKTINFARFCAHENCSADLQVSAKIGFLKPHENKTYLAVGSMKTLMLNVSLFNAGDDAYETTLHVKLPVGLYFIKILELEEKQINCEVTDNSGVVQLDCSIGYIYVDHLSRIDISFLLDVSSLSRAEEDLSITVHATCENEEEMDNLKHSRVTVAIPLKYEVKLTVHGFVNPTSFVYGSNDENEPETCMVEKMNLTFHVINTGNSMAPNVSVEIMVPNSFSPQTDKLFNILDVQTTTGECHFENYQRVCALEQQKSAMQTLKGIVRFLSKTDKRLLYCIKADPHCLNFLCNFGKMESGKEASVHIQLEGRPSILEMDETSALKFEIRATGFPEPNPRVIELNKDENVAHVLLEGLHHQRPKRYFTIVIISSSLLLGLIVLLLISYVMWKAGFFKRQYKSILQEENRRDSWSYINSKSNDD
α4β1, sequence (P05556 21-798): as the sequence (P05556 21-798) above

O=C(O)CN(CCN(CC(=O)O)CC(=O)O)CC(=O)O [EDTA, reference compound]
inhibition of B2/α27 attachment to immobilized RRETAWA-containing peptide (α5β1 integrin [1]; inhibitor at 10 mM): inhibited

CRGDGWC [A*CRGDGWC*G]
pIC50 (α5β1 integrin [2]; B2/a27 cells (human α5, CHO β1), FIG. 11, read-out: IC50 of inhibition of attachment of B2/a27 cells to fibronectin): 5.22
potency relative to *CRGDC* in B2/a27 attachment to fibronectin (α5β1 integrin [2]; B2/a27 cells, more potent than *CRGDC*): 7 fold
potency relative to *CRRETAWAC* in B2/a27 attachment to fibronectin (α5β1 integrin [2]; B2/a27 cells, more potent than *CRRETAWAC*): 7 fold
potency relative to *CRRETAWAC* in MG 63 cells (α5β1 integrin [2]; MG 63 cells, more potent than *CRRETAWAC*): 4 fold
pIC50 (α5β1 integrin [2]; MG 63 cells, read-out: IC50 of inhibition of attachment of MG 63 cells to fibronectin): 5.00
improvement in activity compared to linear GRGDSP (α5β1 integrin [2]; α5β1-mediated attachment to fibronectin): about 50 fold
binding of peptide-displaying phage to the α5β1 integrin (α5β1 integrin [3]): among the best binders
activity in inhibiting binding of RGD-displaying phage to α5β1 relative to *CRGDC* (α5β1 integrin [4]; RGDGW phage, more active than *CRGDC*, FIG. 9): 5 fold

CRSETYWKC
binding of peptide-displaying phage to the α5β1 integrin (α5β1 integrin [3]): selectively bind

GACRGDCLGA (disulfide 3-7 (inferred)) [reference compound]
inhibition of B2/α27 attachment to immobilized RRETAWA-containing peptide (α5β1 integrin [1]; inhibitor at 1 mM): inhibited
inhibition of binding of CRGDCL-displaying phage to integrin-coated wells (αvβ3 integrin): completely inhibited
inhibition of binding of ELRGDGW-displaying phage to α5β1 integrin (α5β1 integrin [4]; ELRGDGW-displaying phage, CRRETAWAC compared with CRGDC, FIG. 2): approximately the same degree

GRGESP [reference compound]
effect on α5β1-mediated cell attachment to fibronectin (α5β1 integrin [2]; B2/α27 cells, FIG. 5): no effect
effect on RRETAWA-displaying phage binding to α5β1 (α5β1 integrin [4]; RRETAWA-displaying phage, FIG. 4): no effect

RCD(ThioP)C
binding to α5β1 (α5β1): high affinity
binding to α4β1 (α4β1): high affinity
